Data published in patent publication US20260234124A1, “Substituted Pyrazolyl-Pyridinyl Compounds as Ligand Directed Degraders of IRAK3” (Celgene Corporation, priority 2022, published 2026).

Molecular target: T1, IRAK3-ePL (Homo sapiens, UniProt Q9Y616)
T1 construct: expressed in transfected cells; host or cells: 293T CRBN OE/GSPT1 G575N KI cells, lentiviral transduction, puromycin selection
Experiment: IRAK3-ePL overexpressing degradation assay
Format: cell-based
Conditions: IRAK3-ePL Lenti-X 293T CRBN/GSPT1 G575N cells, overnight incubation, top dose 10 μM; for Dmax: HEK-293T, maximum percentage loss of target protein; for DC50: read-out: IRAK3 ePL degradation EC50
Description: Example B1. IRAK3-ePL Overexpressing Degradation Assay
Stable cell lines were generated by the following protocol. 3×10^5 Lenti-X 293T cells (Clonetech) were plated in 0.8 mL of media in a 12-well plate and incubated overnight at 37° C./5% CO2. Packaging plasmid (0.4 μg, pMD), envelope plasmid (0.4 μg, pSP), and lentiviral transfer IRAK3-ePL plasmid (0.8 μg, IRAK3 sequence NM_007199.3) were mixed in 0.1 mL of Opti-MEM and incubated for 5 min. Simultaneously, 2.4 μL of Lipofectamine 2000 (Invitrogen) was added to 0.1 mL of Opti-MEM (Gibco) and incubated for 5 min. The plasmid DNA and lipofectamine were combined and the mixture was allowed to incubate for 20 min. DNA:Lipofectamine Opti-MEM mixtures were then added to previously plated cells dropwise and the cells were incubated for ~16 h at 37° C./5% CO2. Following incubation, the media was removed and 1.2 mL of fresh media was added per well. Lenti-X 293T cells were incubated for ~30 h at 37° C./5% CO2. […] Following incubation, media was removed from the Lenti-X 293T wells and passed through a […]. Part of the viral supernatant was used to transduce cells and the rest was stored at −80° C. Viruses were then added individually (0.5 mL virus) to each well of the 293T^CRBN OE/GSPT1 G575N KI cells, followed by addition of polybrene (10 mg/mL Millipore) to each well at a final concentration of 5.0 μg/mL. Cells were incubated for ~24 h at 37° C./5% CO2. After aspirating media off plates, cells were washed with DPBS, trypsinized and plated in a 10 cm dish in 15 mL of media and 1 μg/mL puromycin. Following incubation of cells for ~72 h at 37° C./5% CO2, media was aspirated off plates, and cells were washed with DPBS and trypsinized. The cells were plated in a 15 cm dish in 40 mL of media with 1.0 μg/mL Puromycin (Gibco) and incubated for ~72 h at 37° C./5% CO2. Following incubation, media was removed and cells were washed with DPBS and trypsinized. The majority of cells were resuspended in Invitrogen freezing media and stored away (~6-8×10^6 cells/vial).
IRAK3-ePL cellular dose response curve degradation assays were performed by the following protocol. Compounds to be tested were dispensed into a white 384-well tissue-culture treated plate using an acoustic liquid handler. Dilutions were prepared based on a 25 μL assay volume in duplicate 10 point 3-fold serial dilutions starting with a 10 μM dose. Negative control wells were included, which only contain 0.2% DMSO to calculate 100% signal. Positive control wells containing 30 μM Ataluren (luciferase inhibitor) were included to calculate the background signal level. All wells were backfilled to a final DMSO concentration of 0.2% to ensure DMSO uniformity across wells. IRAK3-ePL expressing cells (IRAK3-ePL Lenti-X 293T^CRBN/GSPT1 G575N) were washed, trypsinized, counted, and resuspended in fresh DMEM (Gibco) to give a cell concentration of 200,000 cells/mL. 25 μL of cells (5,000 cells/well) were dispensed into the wells of the 384-well plate prespotted with compounds in the previous step and incubated overnight at 37° C./5% CO2. Following incubation, the 384-well plate was taken out of the incubator and left at room temperature for 30 min. InCELL hunter reagent was prepared according to manufacturer's instructions (EA reagent, lysis buffer, and substrate reagent in a 1:1:4 ratio, Cat #96-0002, DiscoverX), which was added to the 384-well plate 25 μL per well. Following the incubation of the plate for 1 h at room temperature, the luminescence signal was read using a ViewLux plate reader. Data was processed and analyzed in ActivityBase software. In short, the average luminescence values of the positive control wells were subtracted from the rest of the wells for background correction, and all luminescence values were normalized to the DMSO control wells. The average value of the DMSO control wells was set to equal 100% of the relative IRAK3-ePL protein levels. […]

Dmax [%]	DC50 [µM]	Compound
27	> 10	C[C@@H](Oc1cc(-c2cnn(C3CCN(CCOCCOCCNC(=O)COc4ccc5c(c4)C(=O)N(C4CCC(=O)NC4=O)C5=O)CC3)c2)cnc1N)c1c(Cl)ccc(F)c1Cl (stereo partly drawn) [Compound 15, N-(2-(2-(2-(4-(4-(6-amino-5-((R)-1-(2,6-dichloro-3-fluorophenyl)ethoxy)pyridin-3-yl)-1H-pyrazol-1-yl)piperidin-1-yl)ethoxy)ethoxy)ethyl)-2-((2-(2,6-dioxopiperidin-3-yl)-1,3-dioxoisoindolin-5-yl)oxy)acetamide]
18	> 10	C[C@@H](Oc1cc(-c2cnn(C3CCN(CCOCCOCCOCCOCCNC(=O)COc4ccc5c(c4)C(=O)N(C4CCC(=O)NC4=O)C5=O)CC3)c2)cnc1N)c1c(Cl)ccc(F)c1Cl (stereo partly drawn) [Compound 17, N-(14-(4-(4-(6-amino-5-((R)-1-(2,6-dichloro-3-fluorophenyl)ethoxy)pyridin-3-yl)-1H-pyrazol-1-yl)piperidin-1-yl)-3,6,9,12-tetraoxatetradecyl)-2-((2-(2,6-dioxopiperidin-3-yl)-1,3-dioxoisoindolin-5-yl)oxy)acetamide]
12	> 10	C[C@@H](Oc1cc(-c2cnn(C3CCN(CCOCCNC(=O)COc4ccc5c(c4)C(=O)N(C4CCC(=O)NC4=O)C5=O)CC3)c2)cnc1N)c1c(Cl)ccc(F)c1Cl (stereo partly drawn) [Compound 14, N-(2-(2-(4-(4-(6-amino-5-((R)-1-(2,6-dichloro-3-fluorophenyl)ethoxy)pyridin-3-yl)-1H-pyrazol-1-yl)piperidin-1-yl)ethoxy)ethyl)-2-((2-(2,6-dioxopiperidin-3-yl)-1,3-dioxoisoindolin-5-yl)oxy)acetamide]

More lines, now with the values behind:

Compound	Dmax [%]	DC50 [µM]
Cc1ncsc1-c1ccc(CNC(=O)[C@@H]2C[C@@H](O)CN2C(=O)[C@@H](NC(=O)CCCN2CCC(n3cc(-c4cnc(N)c(O[C@H](C)c5c(Cl)ccc(F)c5Cl)c4)cn3)CC2)C(C)(C)C)cc1 [Compound 1, (2S,4R)-1-((S)-2-(4-(4-(4-(6-amino-5-((R)-1-(2,6-dichloro-3-fluorophenyl)ethoxy)pyridin-3-yl)-1H-pyrazol-1-yl)piperidin-1-yl)butanamido)-3,3-dimethylbutanoyl)-4-hydroxy-N-(4-(4-methylthiazol-5-yl)benzyl)pyrrolidine-2-carboxamide]	8	> 10
C[C@@H](Oc1cc(-c2cnn(C3CCN(C4CCC5(CC4)CCN(C(=O)c4cccc(NC6CCC(=O)NC6=O)c4)CC5)CC3)c2)cnc1N)c1c(Cl)ccc(F)c1Cl (stereo partly drawn) [Compound 22, 3-((3-(9-(4-(4-(6-Amino-5-((R)-1-(2,6-dichloro-3-fluorophenyl)ethoxy)pyridin-3-yl)-1H-pyrazol-1-yl)piperidin-1-yl)-3-azaspiro[5.5]undecane-3-carbonyl)phenyl)amino)piperidine-2,6-dione]	78	0.066
C[C@@H](Oc1cc(-c2cnn(C3CCN(CCNC(=O)COc4ccc5c(c4)C(=O)N(C4CCC(=O)NC4=O)C5=O)CC3)c2)cnc1N)c1c(Cl)ccc(F)c1Cl (stereo partly drawn) [Compound 13, N-(2-(4-(4-(6-amino-5-((R)-1-(2,6-dichloro-3-fluorophenyl)ethoxy)pyridin-3-yl)-1H-pyrazol-1-yl)piperidin-1-yl)ethyl)-2-((2-(2,6-dioxopiperidin-3-yl)-1,3-dioxoisoindolin-5-yl)oxy)acetamide]	70	0.173
Cc1ncsc1-c1ccc(CNC(=O)[C@@H]2C[C@@H](O)CN2C(=O)[C@@H](NC(=O)COCCOCCOCCOCCN2CCC(n3cc(-c4cnc(N)c(O[C@H](C)c5c(Cl)ccc(F)c5Cl)c4)cn3)CC2)C(C)(C)C)cc1 [Compound 4, (2S,4R)-1-((S)-17-(4-(4-(6-amino-5-((R)-1-(2,6-dichloro-3-fluorophenyl)ethoxy)pyridin-3-yl)-1H-pyrazol-1-yl)piperidin-1-yl)-2-(tert-butyl)-4-oxo-6,9,12,15-tetraoxa-3-azaheptadecanoyl)-4-hydroxy-N-(4-(4-methylthiazol-5-yl)benzyl)pyrrolidine-2-carboxamide]	26	> 10
C[C@@H](Oc1cc(-c2cnn(C3CCN(CCOCCNC(=O)COc4cccc5c4C(=O)N(C4CCC(=O)NC4=O)C5=O)CC3)c2)cnc1N)c1c(Cl)ccc(F)c1Cl (stereo partly drawn) [Compound 9, N-(2-(2-(4-(4-(6-amino-5-((R)-1-(2,6-dichloro-3-fluorophenyl)ethoxy)pyridin-3-yl)-1H-pyrazol-1-yl)piperidin-1-yl)ethoxy)ethyl)-2-((2-(2,6-dioxopiperidin-3-yl)-1,3-dioxoisoindolin-4-yl)oxy)acetamide]	12	> 10
C[C@@H](Oc1cc(-c2cnn(C3CCN(CCOCCOCCNC(=O)COc4cccc5c4C(=O)N(C4CCC(=O)NC4=O)C5=O)CC3)c2)cnc1N)c1c(Cl)ccc(F)c1Cl (stereo partly drawn) [Compound 10, N-(2-(2-(2-(4-(4-(6-amino-5-((R)-1-(2,6-dichloro-3-fluorophenyl)ethoxy)pyridin-3-yl)-1H-pyrazol-1-yl)piperidin-1-yl)ethoxy)ethoxy)ethyl)-2-((2-(2,6-dioxopiperidin-3-yl)-1,3-dioxoisoindolin-4-yl)oxy)acetamide]	22	> 10
